Experimental data published in PubChem BioAssay (NCI).
“And” between values parts separate entries of the source, which are not always exact repeats. Identical values can stand only once.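 Compound exposure: 48 hours, 5 concentrations, 96-well plates. GI50 = concentration required for 50% inhibition of growth. Definition used: TGI = concentration required for complete inhibition of growth.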

Columns and labels:
Assay in all cases: growth of human tumour cells (NCI), 48 h
[1] = tested on: 786-0 renal
[2] = tested on: CCRF-CEM leukemia
[3] = tested on: EKVX NSCLC
[4] = tested on: IGROV1 ovarian
[5] = tested on: NCI/ADR-RES ovarian
[6] = tested on: OVCAR-5 ovarian
[7] = tested on: SF-539 CNS
[8] = tested on: SK-OV-3 ovarian
[9] = tested on: SNB-19 CNS
[10] = tested on: T-47D breast

| SMILES | TGI [1] | TGI [2] | TGI [3] | TGI [4] | TGI [5] | TGI [6] | TGI [7] | TGI [8] | TGI [9] | TGI [10] | GI50 [1] [µM] | GI50 [2] [µM] | GI50 [3] | GI50 [4] | GI50 [5] [µM] | GI50 [6] | GI50 [7] | GI50 [8] [µM] | GI50 [10] [µM] | GI50 [9] |
| --- | --- | --- | --- | --- | --- | --- | --- | --- | --- | --- | --- | --- | --- | --- | --- | --- | --- | --- | --- | --- |
| O=S1(=O)CS(=O)(=O)OCCCO1 | > 100 µM | > 100 µM | > 100 µM | > 100 µM | > 100 µM | > 100 µM | > 100 µM | > 100 µM | > 100 µM | > 100 µM |  |  |  |  |  |  |  |  |  |  |
| O=C1/C(=C\c2coc3ccccc3c2=O)c2ccccc2N1c1c(Cl)cccc1Cl | 33.7 µM | > 100 µM | > 100 µM | 5.91 µM | > 100 µM | > 100 µM | > 100 µM | > 100 µM |  | 31.1 µM | 3.1 | 2.08 | 2.82 µM | 1.62 µM | 3.42 | 20.9 µM | 3.06 µM | 35.6 | 3.05 |  |
| C=C1CCC2C3(C)COC(c4ccc(SC)cc4)OC3CCC2(C)C1C/C=C1/C(=O)OCC1O (stereo not given) | 19.2 µM | 13.7 µM | 26.9 µM | 15.9 µM | 8.18 µM | 25.2 µM | 9.38 µM | 32 µM | 30.6 µM | 13.7 µM | 6.7 | 2.92 | 7.67 µM | 4.3 µM | 2.78 | 10.3 µM | 4.75 µM | 16.3 | 2.53 | 16.8 µM |
| Cc1cc(-c2nc(-c3ccc(OC(F)(F)F)cc3)no2)nn1Cc1ccnc(N2CCN(C3CC3)CC2)c1 | > 100 µM | > 100 µM | > 51.6 µM | > 100 µM | > 100 µM | > 100 µM | > 63.8 µM | > 100 µM | > 100 µM | > 100 µM | 13.5 | 7.09 | < 0.01 µM | > 50 µM | 0.726 | > 37.5 µM | > 33 µM | > 49.6 | 1.03 | > 23.1 µM |
| O=C1/C(=C/c2ccccc2)CCC/C1=C\c1ccccc1 | 11.9 µM and 25.9 µM and 27.1 µM | 36.5 µM and 51.1 µM and > 100 µM | 14.8 µM and 38.2 µM and 39.1 µM | 14.1 µM and 29.4 µM and > 100 µM | 17.1 µM and 95.5 µM | 12 µM and 31.7 µM and 43.3 µM | 12.2 µM and 32.7 µM and 53.4 µM | 12 µM and 43.1 µM and 46.7 µM | 10.9 µM and 29 µM and 31 µM | 11.6 µM and 38.6 µM | 6.62 | 18.5 | 7.8 µM and 15.8 µM | 8.37 µM and 14.6 µM | 17.5 | 6.75 µM and 22 µM | 6.9 µM and 22.3 µM | 6.28 | 15.1 | 6 µM and 12.2 µM |
| COc1ccc2c(=O)c3cc([N+](=O)[O-])ccc3n(C)c2c1 | > 100 µM | > 100 µM | > 100 µM | > 100 µM | > 100 µM | > 100 µM | > 100 µM |  | > 100 µM | > 100 µM |  |  |  |  |  |  |  |  |  |  |
| COc1ccc(-c2nn(-c3cccc(NC(=O)Nc4cc(C(F)(F)F)cc(C(F)(F)F)c4)c3)cc2-c2ccncc2)cc1Cl | 2.74 µM | 3.11 µM |  | 31.6 µM | 13.3 µM | 9.17 µM | 2.25 µM | 7.38 µM | 18.2 µM | 7.17 µM | 0.976 | 0.962 |  | 2.08 µM | 1.25 | 1.4 µM | 0.88 µM | 1.52 | 1.07 | 1.62 µM |
